Assay results from ChEMBL document CHEMBL1287680, “C-11 diamino cryptolepine derivatives NSC748392, NSC748393, and NSC748394: anticancer profile and G-quadruplex stabilization” (Bioorg Med Chem Lett, 2010).

Key:
M14 = assay: cells; conditions: Homo sapiens
Description: Anticancer activity against human M14 cells

SK-OV-3 = assay: cells; conditions: Homo sapiens
Description: Anticancer activity against human SKOV3 cells

Nucleic Acid = conditions: Homo sapiens
Description: Binding affinity to human duplex DNA assessed as change in melting temperature by FRET-melting assay

SN12C = assay: cells; conditions: Homo sapiens
Description: Anticancer activity against human SN12C cells

SK-MEL-28 = assay: cells; conditions: Homo sapiens
Description: Anticancer activity against human SK-MEL-28 cells

HCT-116 = assay: cells; conditions: Homo sapiens
Description: Anticancer activity against human HCT116 cells

HT-29 = assay: cells; conditions: Homo sapiens
Description: Anticancer activity against human HT-29 cells

SNB-75 = assay: cells; conditions: Homo sapiens
Description: Anticancer activity against human SNB75 cells

NCI/ADR-RES = assay: cells; conditions: Homo sapiens
Description: Anticancer activity against human NCI/ADR-RES cells

IGROV-1 = assay: cells; conditions: Homo sapiens
Description: Anticancer activity against human IGROV1 cells

OVCAR-8 = assay: cells; conditions: Homo sapiens, OVCAR-8, read-out: pGI50 (converted)
Description: Anticancer activity against human OVCAR8 cells

cells = conditions: Homo sapiens
Description: Anticancer activity against human RPMI8266 cells

Vero = assay: cells; conditions: Chlorocebus sabaeus, 48 h
Description: Cytotoxicity against african green monkey Vero cells after 48 hrs by MTT assay

DU-145 = assay: cells; conditions: Homo sapiens
Description: Anticancer activity against human DU145 cells

SF-268 = assay: cells; conditions: Homo sapiens
Description: Anticancer activity against human SF268 cells

HL-60(TB) = assay: cells; conditions: Homo sapiens
Description: Anticancer activity against human HL-60(TB) cells

KM12 = assay: cells; conditions: Homo sapiens
Description: Anticancer activity against human KM12 cells

MCF7 = assay: cells; conditions: Homo sapiens
Description: Anticancer activity against human MCF7 cells

HCC 2998 = assay: cells; conditions: Homo sapiens
Description: Anticancer activity against human HCC2998 cells

MDA-MB-435 = assay: cells; conditions: Homo sapiens
Description: Anticancer activity against human MDA-MB-435 cells

OVCAR-4 = assay: cells; conditions: Homo sapiens
Description: Anticancer activity against human OVCAR4 cells

OVCAR-5 = assay: cells; conditions: Homo sapiens
Description: Anticancer activity against human OVCAR5 cells

NCI-H226 = assay: cells; conditions: Homo sapiens
Description: Anticancer activity against human NCI-H226 cells

ACHN = assay: cells; conditions: Homo sapiens
Description: Anticancer activity against human ACHN cells

UO-31 = assay: cells; conditions: Homo sapiens
Description: Anticancer activity against human UO31 cells

TK-10 = assay: cells; conditions: Homo sapiens
Description: Anticancer activity against human TK10 cells

K562 = assay: cells; conditions: Homo sapiens
Description: Anticancer activity against human K562 cells

HOP-62 = assay: cells; conditions: Homo sapiens
Description: Anticancer activity against human HOP62 cells

CAKI-1 = assay: cells; conditions: Homo sapiens
Description: Anticancer activity against human Caki1 cells

RXF 393 = assay: cells; conditions: Homo sapiens
Description: Anticancer activity against human RXF393 cells

Description for physchem: Dissociation constant, pKa of the compound by UV-visible spectroscopy

**Q.** For `C[n+]1c2ccccc2c(Nc2ccc(N3CCCCC3)cc2)c2[nH]c3ccccc3c21.[Cl-]`, which GI50 (M14; M14, read-out: pGI50 (converted)) is on record?
**A.** 0.389 µM

**Q.** What about the CC50 (M14; M14, read-out: pLC50 (converted)) of the same compound?
**A.** 4.07 µM

**Q.** And the TGI (M14; M14, read-out: pTGI)?
**A.** 1.45 µM

**Q.** And the GI50 (SK-OV-3; SK-OV-3, read-out: pGI50 (converted))?
**A.** 0.513 µM

**Q.** And the CC50 (SK-OV-3; SK-OV-3, read-out: pLC50 (converted))?
**A.** 4.27 µM

**Q.** And the TGI (SK-OV-3; SK-OV-3, read-out: pTGI)?
**A.** 1.86 µM

**Q.** And the ΔTm (Nucleic Acid)?
**A.** 1.2 °C

**Q.** And the GI50 (SN12C; read-out: pGI50 (converted))?
**A.** 0.204 µM

**Q.** What about the CC50 (SN12C; read-out: pLC50 (converted)) of the same compound?
**A.** 6.76 µM

**Q.** What about the TGI (SN12C; read-out: pTGI) of the same compound?
**A.** 1.41 µM

**Q.** And the GI50 (SK-MEL-28; SK-MEL-28, read-out: pGI50 (converted))?
**A.** 0.372 µM

**Q.** And the CC50 (SK-MEL-28; SK-MEL-28, read-out: pLC50 (converted))?
**A.** 3.47 µM

**Q.** And the TGI (SK-MEL-28; SK-MEL-28, read-out: pTGI)?
**A.** 1.15 µM

**Q.** And the GI50 (HCT-116; HCT-116, read-out: pGI50 (converted))?
**A.** 0.132 µM

**Q.** What about the CC50 (HCT-116; HCT-116, read-out: pLC50 (converted)) of the same compound?
**A.** 100 µM

**Q.** And the TGI (HCT-116; HCT-116, read-out: pTGI)?
**A.** 0.363 µM

**Q.** What about the GI50 (HT-29; HT-29, read-out: pGI50 (converted)) of the same compound?
**A.** 0.178 µM

**Q.** What about the CC50 (HT-29; HT-29, read-out: pLC50 (converted)) of the same compound?
**A.** 2.14 µM

**Q.** And the TGI (HT-29; HT-29, read-out: pTGI)?
**A.** 0.55 µM

**Q.** And the GI50 (SNB-75; SNB-75, read-out: pGI50 (converted))?
**A.** 0.692 µM

**Q.** And the CC50 (SNB-75; SNB-75, read-out: pLC50 (converted))?
**A.** 4.47 µM

**Q.** What about the TGI (SNB-75; SNB-75, read-out: pTGI) of the same compound?
**A.** 2 µM

**Q.** What about the pKa (physchem) of the same compound?
**A.** 10

**Q.** What about the GI50 (NCI/ADR-RES; read-out: pGI50 (converted)) of the same compound?
**A.** 0.617 µM

**Q.** What about the TGI (NCI/ADR-RES; read-out: pTGI) of the same compound?
**A.** 2.45 µM

**Q.** What about the GI50 (IGROV-1; IGROV-1, read-out: pGI50 (converted)) of the same compound?
**A.** 0.229 µM

**Q.** What about the CC50 (IGROV-1; IGROV-1, read-out: pLC50 (converted)) of the same compound?
**A.** 3.47 µM

**Q.** What about the TGI (IGROV-1; IGROV-1, read-out: pTGI) of the same compound?
**A.** 1.17 µM

**Q.** And the GI50 (OVCAR-8)?
**A.** 0.316 µM

**Q.** And the GI50 (cells; RPMI8266, read-out: pGI50 (converted))?
**A.** 0.158 µM

**Q.** And the CC50 (cells; RPMI8266, read-out: pLC50 (converted))?
**A.** 1 µM

**Q.** What about the TGI (cells; RPMI8266, read-out: pTGI) of the same compound?
**A.** 0.398 µM

**Q.** And the IC50 (Vero)?
**A.** 4.83 µM

**Q.** What about the GI50 (DU-145; DU-145, read-out: pGI50 (converted)) of the same compound?
**A.** 0.398 µM

**Q.** What about the CC50 (DU-145; DU-145, read-out: pLC50 (converted)) of the same compound?
**A.** 4.17 µM

**Q.** And the TGI (DU-145; DU-145, read-out: pTGI)?
**A.** 1.48 µM

**Q.** What about the GI50 (SF-268; SF-268, read-out: pGI50 (converted)) of the same compound?
**A.** 0.676 µM

**Q.** And the CC50 (SF-268; SF-268, read-out: pLC50 (converted))?
**A.** 6.03 µM

**Q.** What about the TGI (SF-268; SF-268, read-out: pTGI) of the same compound?
**A.** 2.19 µM

**Q.** And the GI50 (HL-60(TB); HL-60, read-out: pGI50 (converted))?
**A.** 0.617 µM

**Q.** What about the CC50 (HL-60(TB); HL-60, read-out: pLC50 (converted)) of the same compound?
**A.** > 100 µM

**Q.** What about the GI50 (KM12; KM12, read-out: pGI50 (converted)) of the same compound?
**A.** 0.372 µM

**Q.** And the CC50 (KM12; KM12, read-out: pLC50 (converted))?
**A.** 5.13 µM

**Q.** And the TGI (KM12; KM12, read-out: pTGI)?
**A.** 1.48 µM

**Q.** And the GI50 (MCF7; MCF7, read-out: pGI50 (converted))?
**A.** 0.126 µM

**Q.** And the CC50 (MCF7; MCF7, read-out: pLC50 (converted))?
**A.** 0.912 µM

**Q.** What about the TGI (MCF7; MCF7, read-out: pTGI) of the same compound?
**A.** 0.339 µM

**Q.** And the GI50 (HCC 2998; HCC 2998, read-out: pGI50 (converted))?
**A.** 0.162 µM

**Q.** What about the CC50 (HCC 2998; HCC 2998, read-out: pLC50 (converted)) of the same compound?
**A.** 0.813 µM

**Q.** What about the TGI (HCC 2998; HCC 2998, read-out: pTGI) of the same compound?
**A.** 0.363 µM

**Q.** What about the GI50 (MDA-MB-435; MDA-MB-435, read-out: pGI50 (converted)) of the same compound?
**A.** 0.447 µM

**Q.** What about the CC50 (MDA-MB-435; MDA-MB-435, read-out: pLC50 (converted)) of the same compound?
**A.** 4.9 µM

**Q.** And the TGI (MDA-MB-435; MDA-MB-435, read-out: pTGI)?
**A.** 1.66 µM

**Q.** What about the GI50 (OVCAR-4; OVCAR-4, read-out: pGI50 (converted)) of the same compound?
**A.** 0.363 µM

**Q.** And the CC50 (OVCAR-4; OVCAR-4, read-out: pLC50 (converted))?
**A.** 3.98 µM

**Q.** What about the TGI (OVCAR-4; OVCAR-4, read-out: pTGI) of the same compound?
**A.** 1.35 µM

**Q.** What about the GI50 (OVCAR-5; OVCAR-5, read-out: pGI50 (converted)) of the same compound?
**A.** 1.07 µM

**Q.** What about the CC50 (OVCAR-5; OVCAR-5, read-out: pLC50 (converted)) of the same compound?
**A.** 5.5 µM

**Q.** What about the TGI (OVCAR-5; OVCAR-5, read-out: pTGI) of the same compound?
**A.** 2.4 µM

**Q.** And the GI50 (NCI-H226; NCI-H226, read-out: pGI50 (converted))?
**A.** 0.269 µM

**Q.** What about the TGI (NCI-H226; NCI-H226, read-out: pTGI) of the same compound?
**A.** 1.86 µM

**Q.** What about the GI50 (ACHN; read-out: pGI50 (converted)) of the same compound?
**A.** 0.288 µM

**Q.** And the CC50 (ACHN; read-out: pLC50 (converted))?
**A.** 3.89 µM

**Q.** What about the TGI (ACHN; read-out: pTGI) of the same compound?
**A.** 1.45 µM

**Q.** And the GI50 (UO-31; UO-31, read-out: pGI50 (converted))?
**A.** 0.145 µM

**Q.** And the CC50 (UO-31; UO-31, read-out: pLC50 (converted))?
**A.** 3.02 µM

**Q.** And the TGI (UO-31; UO-31, read-out: pTGI)?
**A.** 0.832 µM

**Q.** And the GI50 (TK-10; TK-10, read-out: pGI50 (converted))?
**A.** 1 µM

**Q.** What about the CC50 (TK-10; TK-10, read-out: pLC50 (converted)) of the same compound?
**A.** 5.62 µM

**Q.** And the TGI (TK-10; TK-10, read-out: pTGI)?
**A.** 2.4 µM

**Q.** And the CC50 (K562; K562, read-out: pLC50 (converted))?
**A.** > 100 µM

**Q.** What about the TGI (K562; K562, read-out: pTGI) of the same compound?
**A.** > 100 µM

**Q.** And the GI50 (HOP-62; HOP-62, read-out: pGI50 (converted))?
**A.** 0.741 µM

**Q.** And the CC50 (HOP-62; HOP-62, read-out: pLC50 (converted))?
**A.** 5.25 µM

**Q.** And the TGI (HOP-62; HOP-62, read-out: pTGI)?
**A.** 2.19 µM

**Q.** And the GI50 (CAKI-1; CAKI-1, read-out: pGI50 (converted))?
**A.** 0.234 µM

**Q.** What about the CC50 (CAKI-1; CAKI-1, read-out: pLC50 (converted)) of the same compound?
**A.** 3.16 µM

**Q.** And the TGI (CAKI-1; CAKI-1, read-out: pTGI)?
**A.** 0.794 µM

**Q.** And the GI50 (RXF 393; RXF 393, read-out: pGI50 (converted))?
**A.** 0.174 µM

**Q.** What about the CC50 (RXF 393; RXF 393, read-out: pLC50 (converted)) of the same compound?
**A.** 0.692 µM

**Q.** What about the TGI (RXF 393; RXF 393, read-out: pTGI) of the same compound?
**A.** 0.347 µM
